{"source": "patent US6040331A", "about": "“Nerve cell protective agents” (Mochida Pharmaceutical Co., Ltd., priority 1996, dated 2000)", "key": {"[1]": {"tested_on": "cerebral ischemic animal models", "conditions": "in vivo; cited from earlier work"}, "[2]": {"tested_on": "pyramidal cells in the hippocampus CA1 region", "assay": "Effectiveness in gerbil model of delayed neuronal death (pyramidal cell count, 3 min ischemia)", "format": "in vivo", "conditions": "carotid arteries 5 min before ischemia, ischemic control 58 ± 22, non-ischemic 249 ± 10, mean ± standard error, hydrochloride", "description": "(§1) The action of compounds to suppress the death of neurons in vivo was studied by the method of Murase et al., Neurosci. Lett., 149, 229, 1993 which was adapted from the method of Kirino et al., Brain Res., 239, 57, 1982. Specifically, the cervical part of a gerbil under anesthesia by halothane inhalation was incised along the median line to expose the carotid artery on both sides, which were occuluded with clips for 3 min and thereafter brought back to patency. After suturing the incised part, the anesthetization was turned off and the animal was brought back to keeping under normal condition. Seven days after loading of cerebral ischemia, the gerbil was anesthetized by administering pentobarbital, fixed by transcardiac formalin perfusion and had the brain isolated. A coronary slice including the fimbria hippocampi was prepared from the isolated brain and stained with Cresyl Violet. The pyramidal cells in the hippocampus CA1 region were counted under an optical microscope. Each test compound was administered through the carotid arteries 5 min before ischemia."}, "hippocampus": {"tested_on": "hippocampus", "conditions": "Bode et al., cited from earlier work"}, "[3]": {"tested_on": "neurons isolated from the cerebrum", "assay": "Naturally occurring neuronal death suppressing action (serum-free cultivation, Crystal Violet)", "format": "cell-based, embryonic day 16 rats", "conditions": "Rattus norvegicus, Neuron, 72 h; 1.0 μg/ml; serum-free, 3 days; read-out: Suppression of Naturally Occurring Neuronal Death", "description": "The action of compounds to suppress the naturally occurring death of neurons was evaluated in terms of their effectiveness in suppressing or inhibiting the naturally occurring death of neurons as induced by exposing cultured neurons to serum-free cultivation conditions. An experiment was run by a method adapted from the method of Shimojo et al., Neurosci. Lett., 151, 170, 1993. Specifically, neurons were isolated from the cerebrum of embryonic day 16 rats in the usual manner, suspended in a DMEM/F12 medium containing 1% fetal bovine serum, seeded onto a polylysine-coated culture plate at a density of 5×10^4 cells per square centimeter and cultivated at 37° C. in 95% air+5% CO2. After one day of culture, the medium was replaced with a serum-free medium containing a compound to be tested and the cultivation was continued for 3 more days. Subsequently, the cells were fixed with 1% glutaraldehyde and their number was determined by calorimetric quantification using Crystal Violet (Anal. Biochem., 182, 16-19, 1989). The percent suppression of neuronal death by the test compound was determined by the following formula:\n(§2) 100×(ODtest-ODcontrol)/(ODnormal-ODcontrol) (%)\nwhere ODtest is the number of cells (absorbance) in the group of addition of test compound after serum removal, ODcontrol is the number of cells (absorbance) in a control group after serum removal, and ODnormal is the number of cells (absorbance) in a control (normal) group without serum removal."}, "[4]": {"tested_on": "pyramidal cells in the hippocampus CA1 region", "assay": "Effectiveness in gerbil model of delayed neuronal death (damage score, 4 min ischemia)", "format": "in vivo", "conditions": "carotid arteries 5 min before ischemia, score 0-4", "description": "as §1, with “Specifically,” for “The action of compounds to suppress the death of neurons in vivo was studied by the method of Murase et al., Neurosci. Lett., 149, 229, 1993 which was adapted from the method of Kirino et al., Brain Res., 239, 57, 1982. Specifically,”, “4” for “3”, “Three” for “Seven”, “examined” for “counted”, “microscope and the degree of damage was rated by the following scores: 0, no damage; 1, slight damage; 2, moderate damage; 3, significant damage; 4, total damage.” for “microscope.”"}, "cerebral infarction": {"tested_on": "cerebral infarction", "assay": "Effectiveness in rat model of permanent occlusion of middle cerebral artery", "format": "in vivo", "conditions": "10 mg/kg, tail vein, 10 min after occlusion; 24 h; control 14.7 ± 0.8; mean ± standard error; ** p < 0.01 vs control group", "from_the_text": "The therapeutic effect of compounds against cerebral infarction was studied in accordance with the method of Tamura et al., J. Cereb. Blood Flow Metab., 1, 53, 1981.\nSpecifically, a hole was made transorbitally in part of the cranial bone of a rat under anesthesia by halothane inhalation to expose the origin of the middle cerebral artery. Then, using a bipolar coagulator, the middle cerebral arteries were burnt to coagulate for permanent occlusion. The operative site was sutured and after the anesthetization was turned off, the animal was brought back to keeping under normal condition. Twenty-four hours after loading of cerebral ischemia, the rat was decapitated and the brain was isolated. The isolated brain was cut at a predetermined site to prepare five coronary slices. The infarct area of each section was rendered visible by staining with 2,3,5-triphenyltetrazolium chloride (TTC) and quantitated with an image analyzer. A test compound was administered through the tail vein 10 min after the occlusion of the middle cerebral arteries and comparison was made with a control group administered with a solvent alone."}, "[5]": {"tested_on": "neurons isolated from the cerebrum", "assay": "Veratrine-induced neuronal death suppressing action (MTT)", "format": "cell-based, embryonic day 16 rats", "conditions": "Rattus norvegicus, Neuron; veratrine 0.35 mM; MTT after 24 h; probit method; read-out: IC50 (50% suppression of veratrine-induced neuronal death)", "description": "The action of compounds to suppress the death of neurons induced by veratrine was evaluated in terms of their effectiveness in suppressing the neuronal death as induced by direct addition of veratrine. An experiment was run by a method adapted from the method of Powells et al., J. Pharmacol. Exp. Therapeutics, 255, 1117, 1987. Specifically, neurons were isolated from the cerebrum of embryonic day 16 rats in the usual manner, suspended in a MEM medium containing 10% fetal bovine serum, seeded onto a polylysine-coated culture plate at a density of 2.5×10^5 cells per square centimeter and cultivated at 37° C. in 95% air+5% CO2. Starting on the fifth day of cultivation, treatment was conducted with 10 μM of cytosine arabinoside for 2 days and the cultivation was continued until the 12th day, when a test was run as follows. The cells were treated with a buffer solution containing veratrine (0.35 mM) and a test compound, replaced in a serum-containing medium and cultivated for another 24 h. Subsequently, the number of viable cells was determined by calorimetric quantification using 3-(4,5-dimethylthiazol-2-yl)-2,5-diphenyltetrazolium bromide (MTT). The percent suppression of neuronal death by the test compound was determined by the following formula:\nas §2\nwhere ODtest is the number of cells (absorbance) in the group of addition of veratrine+test compound, ODcontrol is the number of cells (absorbance) in a control group of addition of veratrine, and ODnormal is the number of cells (absorbance) in a control (normal) group without addition of veratrine.\nIn addition, IC50 values indicating the effectiveness in achieving 50% suppression of neuronal death were calculated by the probit method on the basis of the result from more than one concentration."}, "mice (ICR)": {"tested_on": "mice (ICR)", "assay": "Acute toxicity test", "format": "in vivo, mouse", "conditions": "100 mg/kg, intraperitoneal, 7-day observation, 3 animals per group"}, "[6]": {"tested_on": "formalin induced pain reaction", "assay": "Effectiveness in formalin induced paw pain test", "format": "in vivo, mouse", "conditions": "for Suppression of pain reaction, Second phase / Suppression of pain reaction, First phase: oral, 30 min before formalin; for Suppression of pain reaction, Second phase: from 10 min to 45 min; for Suppression of pain reaction, First phase: within 10 min after induction", "description": "The effectiveness of compounds in a formalin induced pain test was studied in accordance with the method of Shibata et al., Pain, 38, 347, 1989.\nSpecifically, the left hind paw of a mouse was injected subcutaneously with 25 μl of a 0.5% formalin solution and the duration of time for which the mouse licked and bit the treated foot starting just after the injection was measured with a stopwatch; the measured times were integrated for every 5 minutes and recorded. The formalin induction caused a characteristic biphase pain reaction; the pain recognized within 10 min after the induction was categorized as a first-phase pain reaction and the pain recognized from 10 min to 45 min as a second-phase reaction. The test compounds were administered orally 30 min before the injection of formalin. The percent suppression of the formalin induced pain reaction by each test compound was determined by the following formula:\n100×(PRcontrol-PRtest)/(PRcontrol) (%)\nwhere PRtest is the time (sec) of pain reaction in a group administered with both formalin and the test compound and PRcontrol is the time (sec) of pain reaction in a control group subjected to formalin induction."}, "[7]": {"conditions": "10 mg/kg, ** p < 0.01 vs ischemic control group"}}, "data": [{"smiles": "O=C(O)[C@@H]1C[C@H](CP(=O)(O)O)CCN1", "note": "(relative stereo) [selphotel]", "values": [{"measurement": "effectiveness in cerebral ischemic animal models (in words)", "setting": "[1]", "value": "effective"}]}, {"smiles": "Cl.Fc1ccccc1-c1[nH]c2cccc3c2c1CCC3N1CCOCC1", "note": "(single isomer, unassigned; (+)) [Example 247, (+)-2-(2-fluorophenyl)-5-morpholino-1,3,4,5-tetrahydrobenz[cd]indole hydrochloride]", "values": [{"measurement": "Pyramidal cell count in hippocampus CA1", "setting": "[2]; 2.5 mg/kg", "value": "96 ± 31", "unit": "cells/mm"}, {"measurement": "Pyramidal cell count in hippocampus CA1", "setting": "[2]; [7]", "value": "83 ± 35", "unit": "cells/mm"}]}, {"smiles": "Cl.Fc1ccccc1-c1[nH]c2cccc3c2c1CCC3N1CCOCC1", "note": "(single isomer, unassigned; (-)) [Example 248, (-)-2-(2-fluorophenyl)-5-morpholino-1,3,4,5-tetrahydrobenz[cd]indole hydrochloride]", "values": [{"measurement": "Pyramidal cell count in hippocampus CA1", "setting": "[2]; 2.5 mg/kg", "value": "87 ± 29", "unit": "cells/mm"}, {"measurement": "Pyramidal cell count in hippocampus CA1", "setting": "[2]; [7]", "value": "206 ± 14", "unit": "cells/mm"}]}, {"smiles": "CCCN(CCC)C1Cc2c[nH]c3ccc(OC)c(c23)C1", "note": "(stereo not shown) [BAY-R-1531]", "values": [{"measurement": "effect on damage to the hippocampus of gerbils after brain ischemia (in words)", "setting": "hippocampus; Stroke, 21, 1990", "value": "effective for damage to the hippocampus of gerbils after brain ischemia"}, {"measurement": "dose of protective effect relative to dose altering patterns of behavior (in words)", "setting": "hippocampus; serotonin-like action", "value": "the protective effect of the compound was only recognized at a by far higher dose than the one that caused altered patterns of behavior due to a serotonin-like action"}]}, {"smiles": "CN1CCN(c2ncc(-c3cc(Cl)cc(Cl)c3Cl)c(N)n2)CC1", "note": "[BW619C89]", "values": [{"measurement": "effectiveness in cerebral ischemic animal models (in words)", "setting": "[1]", "value": "effective"}]}, {"smiles": "NC1CCc2c(-c3ccccc3)[nH]c3cccc1c23", "note": "(stereo not shown) [Example 81, 5-amino-2-phenyl-1,3,4,5-tetrahydrobenz[cd]indole]", "values": [{"measurement": "inhibition at 1 µg/mL", "setting": "[3]", "value": 51, "unit": "%"}, {"measurement": "Score of damage to hippocampus CA1", "setting": "[4]; 10 mg/kg, ischemic control 2.9 ± 0.3, mean ± standard error (Table 3-1)", "value": "0.1 ± 0.1"}, {"measurement": "Weight of infarction", "setting": "cerebral infarction", "value": "9.3 ± 1.5", "unit": "%"}, {"measurement": "IC50", "setting": "[5]", "value": 3.2, "unit": "µg/mL"}, {"measurement": "death (acute toxicity)", "setting": "mice (ICR)", "value": "no case of death was found"}]}, {"smiles": "NC1CCc2c(-c3ccccc3)[nH]c3c(Cl)ccc1c23", "note": "(stereo not shown) [Example 86, 5-amino-8-chloro-2-phenyl-1,3,4,5-tetrahydrobenz[cd]indole]", "values": [{"measurement": "Score of damage to hippocampus CA1", "setting": "[4]; 5 mg/kg, ischemic control 2.9 ± 0.3, mean ± standard error (Table 3-1)", "value": "1.8 ± 0.1"}, {"measurement": "death (acute toxicity)", "setting": "mice (ICR)", "value": "no case of death was found"}]}, {"smiles": "Cl.Fc1ccccc1-c1[nH]c2cccc3c2c1CCC3N1CCOCC1", "note": "(stereo not shown) [Example 232, 2-(2-fluorophenyl)-5-morpholino-1,3,4,5-tetrahydrobenz[cd]indole hydrochloride]", "values": [{"measurement": "Suppression of pain reaction, Second phase", "setting": "[6]; 200 mg/kg", "value": 100, "unit": "%"}, {"measurement": "Suppression of pain reaction, First phase", "setting": "[6]; 200 mg/kg", "value": 51, "unit": "%"}, {"measurement": "Score of damage to hippocampus CA1", "setting": "[4]; 10 mg/kg, ischemic control 3.5 ± 0.4, mean ± standard error (Table 3-2)", "value": "2.5 ± 0.7"}]}, {"smiles": "Cl.Cn1c(-c2ccccc2)c2c3c(cccc31)C(N1CCOCC1)CC2", "note": "(stereo not shown) [Example 237, 1-methyl-5-morpholino-2-phenyl-1,3,4,5-tetrahydrobenz[cd]indole hydrochloride]", "values": [{"measurement": "Suppression of pain reaction, Second phase", "setting": "[6]; 100 mg/kg", "value": 97, "unit": "%"}, {"measurement": "Suppression of pain reaction, First phase", "setting": "[6]; 100 mg/kg", "value": 63, "unit": "%"}]}, {"smiles": "O=c1[nH]c2cc(-n3ccnc3)c([N+](=O)[O-])cc2[nH]c1=O", "note": "[YM90K]", "values": [{"measurement": "effectiveness in cerebral ischemic animal models (in words)", "setting": "[1]", "value": "effective"}]}, {"smiles": "C[C@]12N[C@H](Cc3ccccc31)c1ccccc12", "note": "[dizocilpine]", "values": [{"measurement": "effectiveness in cerebral ischemic animal models (in words)", "setting": "[1]", "value": "effective"}]}, {"smiles": "Cc1ccc(-c2nc(C)c(CN3CCN(C(c4ccccc4)c4ccccc4)CC3)[nH]2)cc1", "note": "[lifarizine]", "values": [{"measurement": "effectiveness in cerebral ischemic animal models (in words)", "setting": "[1]", "value": "effective"}]}, {"smiles": "CC(C)=CCN1CCC2(C)c3cc(O)ccc3CC1C2C", "note": "(stereo not shown) [pentazocine, reference compound]", "values": [{"measurement": "suppression of the first-phase pain reaction", "setting": "[6]; 10 mg/kg, subcutaneous", "value": 61, "unit": "%"}, {"measurement": "suppression of the second-phase pain reaction", "setting": "[6]; 10 mg/kg, subcutaneous", "value": 40, "unit": "%"}]}]}
